Measured values reported in patent US5053508A, “Fused heterotricyclic imides with psychotropic activity and intermedrates thereof” (American Home Products Corporation, priority 1990, dated 1991).

Key:
[1] = test system: Male CD rats; assay: conditioned avoidance (shelf-jump response) test; assay type: in vivo
Source text: A test designed to determine the potential antipsychotic activity of the compounds of the invention is the conditioned avoidance (shelf-jump response) test.
Male CD rats (Charles River) maintained at approximately 400-450 gm body weight are used. […] A moveable wall, controlled by a motor, determines whether the rat has access to the shelf at any time during the experiment. The experimental chamber also contains a house light and sonalert. A steel grid floor in the main chamber is wired for presentation of electric shock. Each trial consists of a fifteen-second warning tone (conditioned stimulus), continuing for an additional fifteen seconds accompanied by electric shock (unconditioned stimulus). A response (jumping onto the exposed shelf of the upper chamber) occurring during the initial fifteen-second warning tone is considered an avoidance response, while a response occurring during shock delivery is considered an escape response. Trials are presented on a fixed interval schedule of one minute. The session consists of thirty-six trials. Animals are run twice weekly with control sessions always preceding a drug run, and with at least one day intervening. Compounds are administered i.p. or p.o. at appropriate pre-treatment times to a minimum of five rats at each dose level over a range of doses.
The following experimental parameters are recorded by computer: (1) the number of avoidance responses, (2) the number of escape responses, and (3) the number of trials in which no response occurred.
Response counts are summed over all subjects at a given dose. […] This number is expressed as a percentage of the total trials. Control performance is arbitrarily assigned a value of 100% for avoidance responding and the dose calculated to produce a 50% block in avoidance responding (AB50) is obtained from a dose-effect regression line fitted by the method of least squares. Potential antipsychotic compounds suppress avoidance responding and increase escape responding.

[2] = test system: dopamine receptor; conditions: i.p.; result in words

Compound | Active at ([1]; i.p.) [mg/kg] | activity in the apomorphine-induced stereotyped behavior assay [2] | Active at ([1]; p.o.) [mg/kg]
Cl.O=C1C2C3CS(=O)(=O)CC3C2C(=O)N1CCCCN1CCN(c2nccnc2Cl)CC1 (stereo not drawn) [Example 2, 5-[4-[4-(3-chloro-2-pyrazinyl)-1-piperazinyl]butyl]tetrahydro-1H-thieno[3',4':3,4]cyclobuta[1,2-c]pyrrole-4,6(3H,5H)dione 2,2-dioxide, hydrochloride] | 40 | – | –
O=C1CC2(CCCC2)CC(=O)N1CCCCN1CCN(c2ncccn2)CC1 [Buspirone, 8-[4-[4-(2-pyrimidinyl)-1-piperazinyl]butyl]-8-azaspiro[4.5]decane-7,9-dione] | – | inactive | –
Cl.O=C1C2C3CS(=O)(=O)CC3C2C(=O)N1CCCCN1CCN(c2cncc(Cl)n2)CC1 (stereo not drawn) [Example 1, 5-[4-[4-(6-chloro-2-pyrazinyl)-1-piperazinyl]butyl]tetrahydro-1H-thieno[3',4':3,4]cyclobuta[1,2-c]pyrrole-4,6(3H,5H)-dione 2,2 dioxide hydrochloride] | 40 | – | 40
CC1=NOC2C3CC(C12)C1C(=O)N(CCCCN2CCN(c4cncc(Cl)n4)CC2)C(=O)C31.O=C(O)C(=O)O (stereo not drawn) [Example 6, 6-[4-[4-(6-chloro-2-pyrazinyl)-1-piperazinyl]butyl]-3a,4,4a,7a,8,8a-hexahydro-3-methyl-4,8-methano-5H-pyrrolo[3,4-f]-1,2-benzisoxazole-5,7(6H)-dione, ethanedioate (1:1)] | 40 | – | –
CC1=NOC2C3CCC(C12)C1C(=O)N(CCCCN2CCN(c4cnccn4)CC2)C(=O)C31.O=C(O)C(=O)O (stereo not drawn) [Example 11, 6-[4-[4-(2-pyrazinyl)-1-piperazinyl]butyl]-3a,4,4a,7a,8,8a-hexahydro-3-methyl-4,8-ethano-5H-pyrrolo[3,4-f]-1,2-benzisoxazole-5,7(6H)-dione, ethanedioate (1:1)] | 40 | – | –
CC1=NOC2C3CC(C12)C1C(=O)N(CCCCN2CCN(c4cnccn4)CC2)C(=O)C31 (stereo not drawn) [Example 7, 6-[4-[4-(2-pyrazinyl)-1-piperazinyl]butyl]-3a,4,4a,7a,8,8a-hexahydro-3-methyl-4,8-methano-5H-pyrrolo[3,4-f]-1,2-benzisoxazole-5,7(6H)-dione, ethanedioate (1:1), hemiethanolate] | 40 | – | –
CC1=NOC2C3CCC(C12)C1C(=O)N(CCCCN2CCN(c4ncccn4)CC2)C(=O)C31.O=C(O)C(=O)O (stereo not drawn) [Example 10, 6-[4-[4-(2-pyrimidinyl)-1-piperazinyl]butyl]-3a,4,4a,7a,8,8a-hexahydro-3-methyl-4,8-ethano-5H-pyrrolo[3,4-f]-1,2-benzisoxazole-5,7(6H)-dione, ethanedioate (1:1)] | 40 | – | –
6-[4-[4-2-pyrimidinyl)-1-piperazinyl]butyl]-3a,4,4a,7a,8,8a-hexahydro-3-methyl-4,8-methano-5H-pyrrolo[3,4-f]-1,2-benzisoxazole-5,7(6H)-dione, dihydrochloride, hydrate [Example 8] | 40 | – | –
